Drawing on ChEMBL document CHEMBL4257005, “Therapeutically active compounds and their methods of use” (2016), this text covers IC50 for five molecules.

For experiment [1], the target named is Isocitrate dehydrogenase [NADP] cytoplasmic (Homo sapiens, UniProt O75874, R132C). As to the kind of experiment: Inhibition of DH1 R132C mutant homodimer (unknown origin) expressed in Sf9 cells pre-incubated for 1 hr before addition of alpha-KG followed by 90 mins incubation in presence of NADPH, NADP, diaphorase and resazurin by fluorescence spectrometry. On the technique in general: Alamar Blue is a resazurin reagent that responds to reducing activity.

Experiment [2] deals with Isocitrate dehydrogenase [NADP] cytoplasmic (Homo sapiens, UniProt O75874). Description: Inhibition of His-tagged wild type IDH1 (unknown origin)/FLAG-tagged IDH1 R132H mutant heterodimer expressed in Sf9 cells pre-incubated for 1 hr before addition of alpha-KG followed by diaphorase and resazurin addition and measured after 5 mins in presence of NADPH and 30 uM NADP ny fluorescence spectrometry.

For experiment [3], the target named is Isocitrate dehydrogenase [NADP] cytoplasmic (Homo sapiens, UniProt O75874, R132H). Description: Inhibition of DH1 R132H mutant homodimer (unknown origin) expressed in Sf9 cells pre-incubated for 1 hr before addition of alpha-KG followed by 90 mins incubation in presence of NADPH, NADP, diaphorase and resazurin by fluorescence spectrometry.
Chain of Isocitrate dehydrogenase [NADP] cytoplasmic (Homo sapiens, UniProt O75874, R132H) (O75874 2-414 R132H limits assumed): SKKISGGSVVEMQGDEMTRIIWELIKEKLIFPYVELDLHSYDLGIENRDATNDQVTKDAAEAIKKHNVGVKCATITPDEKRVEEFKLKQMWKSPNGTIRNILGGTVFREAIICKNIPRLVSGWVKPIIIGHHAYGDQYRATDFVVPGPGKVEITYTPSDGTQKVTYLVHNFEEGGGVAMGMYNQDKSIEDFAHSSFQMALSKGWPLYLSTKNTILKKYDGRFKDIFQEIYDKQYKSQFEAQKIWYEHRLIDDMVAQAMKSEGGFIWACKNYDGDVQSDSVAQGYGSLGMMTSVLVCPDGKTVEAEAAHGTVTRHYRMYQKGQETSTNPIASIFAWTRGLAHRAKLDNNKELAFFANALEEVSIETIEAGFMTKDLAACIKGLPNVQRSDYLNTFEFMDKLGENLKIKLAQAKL

Chain of Isocitrate dehydrogenase [NADP] cytoplasmic (Homo sapiens, UniProt O75874, R132C) (O75874 2-414 R132C limits assumed): as the sequence (O75874 2-414 R132H limits assumed) above, with H131C counted along it
Chain of Isocitrate dehydrogenase [NADP] cytoplasmic (Homo sapiens, UniProt O75874) (O75874 2-414 limits assumed): as the sequence (O75874 2-414 R132H limits assumed) above, with H131R counted along it

For the molecule `C[C@@H](Nc1nc(NCC(N)=O)nc(-c2cccc(C(F)(F)F)n2)n1)C1CC1`, the IC50 result in experiment [1] is on record as “Not Active”. In the case of `C[C@@H](Nc1nc(N[C@H](C)C2CC2)nc(-c2ccc(Cl)cc2)n1)C1CC1`, the IC50 result in experiment [2] is “Not Active”. Turning to `COc1ccc(F)c(-c2nc(N[C@H](C)C3CC3)nc(N[C@H](C)C3CC3)n2)c1`, the IC50 entry in experiment [3] is “Not Active”.

As for `C[C@@H](Nc1nc(N[C@H](C)C2CC2)nc(-c2cccc(C(F)(F)F)n2)n1)C(=O)N(C)C`, the IC50 entry in experiment [1] is listed as “Not Active”. Same read-out and setting: to `C[C@@H](Nc1nc(N[C@H](C)C2CC2)nc(-c2cccc(C(F)(F)F)n2)n1)C(=O)O` belongs “Not Active”.
